Results on 28 compounds are retold here after patent US8802700B2 (Vertex Pharmaceuticals Incorporated, priority 2010, dated 2014).

For the first assay, the target named is T1, ΔF508-CFTR (Homo sapiens, UniProt P13569, DEL508-508).
T1 construct: expressed in transfected cells
T1 sequence (P13569 with tags, fused parts or gaps DEL508-508): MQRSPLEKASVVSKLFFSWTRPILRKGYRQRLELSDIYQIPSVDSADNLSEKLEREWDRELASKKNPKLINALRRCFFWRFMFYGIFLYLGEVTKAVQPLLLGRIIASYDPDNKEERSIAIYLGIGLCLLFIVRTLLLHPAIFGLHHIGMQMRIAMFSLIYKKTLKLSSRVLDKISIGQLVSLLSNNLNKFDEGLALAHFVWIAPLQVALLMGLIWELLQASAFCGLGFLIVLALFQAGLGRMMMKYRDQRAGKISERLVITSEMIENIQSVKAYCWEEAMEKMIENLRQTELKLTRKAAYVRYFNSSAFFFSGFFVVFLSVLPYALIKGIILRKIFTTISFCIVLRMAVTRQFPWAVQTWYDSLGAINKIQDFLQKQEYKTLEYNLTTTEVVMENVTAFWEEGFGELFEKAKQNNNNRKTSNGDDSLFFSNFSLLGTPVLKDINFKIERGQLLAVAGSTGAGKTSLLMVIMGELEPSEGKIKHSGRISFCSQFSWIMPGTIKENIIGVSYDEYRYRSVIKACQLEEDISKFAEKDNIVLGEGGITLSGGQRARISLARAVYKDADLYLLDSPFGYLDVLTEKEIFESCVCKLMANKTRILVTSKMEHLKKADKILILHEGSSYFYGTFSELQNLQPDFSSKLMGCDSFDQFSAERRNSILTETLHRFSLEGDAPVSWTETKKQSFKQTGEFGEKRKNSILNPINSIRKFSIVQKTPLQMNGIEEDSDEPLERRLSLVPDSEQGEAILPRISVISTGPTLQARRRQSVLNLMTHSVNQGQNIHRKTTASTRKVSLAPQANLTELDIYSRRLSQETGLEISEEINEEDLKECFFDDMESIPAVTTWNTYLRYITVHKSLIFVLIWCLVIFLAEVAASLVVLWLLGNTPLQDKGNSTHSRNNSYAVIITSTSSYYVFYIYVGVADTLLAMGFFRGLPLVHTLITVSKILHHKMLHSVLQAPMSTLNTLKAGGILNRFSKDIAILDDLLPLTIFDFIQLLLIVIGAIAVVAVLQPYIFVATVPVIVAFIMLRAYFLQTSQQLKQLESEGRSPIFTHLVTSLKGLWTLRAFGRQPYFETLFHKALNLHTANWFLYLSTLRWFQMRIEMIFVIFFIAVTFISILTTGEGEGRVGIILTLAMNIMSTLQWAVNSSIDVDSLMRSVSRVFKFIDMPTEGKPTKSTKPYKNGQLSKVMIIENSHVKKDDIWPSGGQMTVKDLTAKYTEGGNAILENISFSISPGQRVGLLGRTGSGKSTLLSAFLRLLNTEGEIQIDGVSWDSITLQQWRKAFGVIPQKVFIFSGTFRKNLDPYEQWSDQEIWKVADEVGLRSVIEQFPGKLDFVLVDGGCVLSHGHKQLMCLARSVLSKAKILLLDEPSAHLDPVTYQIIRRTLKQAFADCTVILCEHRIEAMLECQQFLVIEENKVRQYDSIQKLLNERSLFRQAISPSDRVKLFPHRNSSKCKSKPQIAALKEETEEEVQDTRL
The assay is described as follows: Membrane potential optical assay (FRET voltage-sensor dyes, VIPR), identification of potentiator compounds. Type of assay: cell-based. The note with it: Table 3; assay not given. In short, it runs like this: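 NIH3T3 mouse fibroblasts stably expressing ΔF508-CFTR, cultured 24 h at 27 °C, were loaded with FRET voltage dyes CC2-DMPE and DiSBAC2(3). Double-addition format: first addition of Cl⁻-free (gluconate) medium with or without compound; membrane-potential change read as fluorescence on VIPR II.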
For the compound `CCCc1ccc(N)cc1NC(=O)c1c[nH]c2ccccc2c1=O` [Compound 41, N-(5-amino-2-propyl-phenyl)-4-oxo-1H-quinoline-3-carboxamide], the EC50 (in general, the concentration needed to bring the measured effect to its halfway point) was less than 10 µM.
On the same count and under the same terms, to `CS(=O)(=O)Nc1cc(NC(=O)c2c[nH]c3ccccc3c2=O)cc(C(F)(F)F)c1` [Compound 441, N-[3-methylsulfonylamino-5-(trifluoromethyl)phenyl]-4-oxo-1H-quinoline-3-carboxamide] belongs less than 10 µM.

The same assay, now with this note: Table 3; assay not given; read-out: % Activity (% Efficacy, relative efficacy).
Take `Cc1ccc2[nH]cc(C(=O)Nc3cc(O)c(C4(C)CCCCC4)cc3F)c(=O)c2c1` [Compound 624, N-[2-fluoro-5-hydroxy-4-(1-methylcyclohexyl)-phenyl]-6-methyl-4-oxo-1H-quinoline-3-carboxamide]: the Emax is 25 to 100%.
Still for that read-out and setting: next, `O=C(Nc1ccc(N2CCC[C@@H]2C(=O)O)cc1C(F)(F)F)c1c[nH]c2ccccc2c1=O` [Compound 698, (R)-1-[4-[(4-oxo-1H-quinolin-3-yl)carbonylamino]-3-(trifluoromethyl)phenyl]pyrrolidine-2-carboxylic acid]: 25 to 100%; `Cc1ccc(C#N)c(NC(=O)c2c[nH]c3ccccc3c2=O)c1` [Compound 89, N-(2-cyano-5-methyl-phenyl)-4-oxo-1H-quinoline-3-carboxamide]: less than 25%.
Same read-out and setting: next, `CC(C)(C)c1cc(C(C)(C)C)c(NC(=O)c2c[nH]c3cccc(C(F)(F)F)c3c2=O)cc1O` [Compound 520, N-(5-hydroxy-2,4-ditert-butyl-phenyl)-4-oxo-5-(trifluoromethyl)-1H-quinoline-3-carboxamide]: 25 to 100%; `CCC(C)c1ccccc1NC(=O)c1c[nH]c2ccccc2c1=O` (stereo not drawn) [Compound 142, 4-oxo-N-(2-sec-butylphenyl)-1H-quinoline-3-carboxamide]: 25 to 100%; `CCOC(=O)Nc1cc(NC(=O)c2c[nH]c3ccccc3c2=O)ccc1C(C)(C)C` [Compound 127, [5-[(4-oxo-1H-quinolin-3-yl)carbonylamino]-2-tert-butyl-phenyl]aminoformic acid ethyl ester]: 25 to 100%.
Same read-out and setting: next, `CCCc1ccc(N)cc1NC(=O)c1c[nH]c2ccccc2c1=O` [Compound 41, N-(5-amino-2-propyl-phenyl)-4-oxo-1H-quinoline-3-carboxamide]: 25 to 100%; `CC(C)(C)c1cc(C(C)(C)C)c(NC(=O)c2c[nH]c3c(C(F)(F)F)cccc3c2=O)cc1O` [Compound 580, N-(5-hydroxy-2,4-ditert-butyl-phenyl)-4-oxo-8-(trifluoromethyl)-1H-quinoline-3-carboxamide]: less than 25%.
As to `Cc1ccc2cccc(NC(=O)c3c[nH]c4ccccc4c3=O)c2n1` [Compound 364, N-(2-methyl-8-quinolyl)-4-oxo-1H-quinoline-3-carboxamide], the Emax lay in the range of 25 to 100%.
Consider `O=C(Nc1ccccc1C(F)(F)F)c1c[nH]c2ccccc2c1=O` [Compound 111, 4-oxo-N-[2-(trifluoromethyl)phenyl]-1H-quinoline-3-carboxamide], for which the Emax lay in the range of 25 to 100%.
Still for that read-out and setting: to `CC(C)(C)c1ccccc1Oc1ccccc1NC(=O)c1c[nH]c2ccccc2c1=O` [Compound 178, 4-oxo-N-[2-(2-tert-butylphenoxy)phenyl]-1H-quinoline-3-carboxamide] belongs 25 to 100%; to `C[C@H]1CCCN1c1ccc(NC(=O)c2c[nH]c3ccccc3c2=O)c(C(F)(F)F)c1` [Compound 618, (S)-N-(4-(2-methylpyrrolidin-1-yl)-2-(trifluoromethyl)phenyl)-4-oxo-1,4-dihydroquinoline-3-carboxamide], 25 to 100%; to `CCCOc1ccc(NC(=O)c2c[nH]c3ccccc3c2=O)cc1N` [Compound 368, N-(3-amino-4-propoxy-phenyl)-4-oxo-1H-quinoline-3-carboxamide], 25 to 100%.
The same measure, in the same setting: to `O=C(Nc1cccc(SC(F)(F)F)c1)c1c[nH]c2ccccc2c1=O` [Compound 456, 4-oxo-N-[3-(trifluoromethylsulfanyl)phenyl]-1H-quinoline-3-carboxamide] belongs 25 to 100%; to `O=C(Nc1ccc2cc(C(F)(F)F)[nH]c2c1)c1c[nH]c2ccccc2c1=O` [Compound 537, 4-oxo-N-[2-(trifluoromethyl)-1H-indol-6-yl]-1H-quinoline-3-carboxamide], 25 to 100%.
Same read-out and setting: to `O=C(Nc1ccc(N2CCC[C@H]2C(=O)O)cc1C(F)(F)F)c1c[nH]c2ccccc2c1=O` [Compound 567, (S)-1-[4-[(4-oxo-1H-quinolin-3-yl)carbonylamino]-3-(trifluoromethyl)phenyl]pyrrolidine-2-carboxylic acid] belongs 25 to 100%; to `O=C(Nc1ccccc1-c1ccc(F)cc1)c1c[nH]c2ccccc2c1=O` [Compound 182, N-[2-(4-fluorophenyl)phenyl]-4-oxo-1H-quinoline-3-carboxamide], 25 to 100%.
With `CC(C)(C)c1cc2cc[nH]c2cc1NC(=O)c1c[nH]c2ccc(S(=O)(=O)N3CCCC3)cc2c1=O` [Compound 274, 4-oxo-6-pyrrolidin-1-ylsulfonyl-N-(5-tert-butyl-1H-indol-6-yl)-1H-quinoline-3-carboxamide], the Emax was in the range of 25 to 100%.
Still for that read-out and setting: next, `CN(Cc1ccccc1NC(=O)c1c[nH]c2ccccc2c1=O)C1CCCCC1` [Compound 354, N-[2-[(cyclohexyl-methyl-amino)methyl]phenyl]-4-oxo-1H-quinoline-3-carboxamide]: 25 to 100%; `C[C@@H]1CCCN1c1ccc(NC(=O)c2c[nH]c3ccc(F)cc3c2=O)c(C(F)(F)F)c1` [Compound 684, (R)-6-fluoro-N-(4-(2-methylpyrrolidin-1-yl)-2-(trifluoromethyl)phenyl)-4-oxo-1,4-dihydroquinoline-3-carboxamide]: 25 to 100%.
The same measure, in the same setting: next, `O=C(Nc1ccccc1CCO)c1c[nH]c2ccccc2c1=O` [Compound 40, N-[2-(2-hydroxyethyl)phenyl]-4-oxo-1H-quinoline-3-carboxamide]: less than 25%; `O=C(Nc1cc(NS(=O)(=O)CCN2CCOCC2)cc(C(F)(F)F)c1)c1c[nH]c2ccccc2c1=O` [Compound 272, N-[3-(2-morpholinoethylsulfonylamino)-5-(trifluoromethyl)phenyl]-4-oxo-1H-quinoline-3-carboxamide]: 25 to 100%.
Still for that read-out and setting: next, `CCOc1cccc2c(=O)c(C(=O)Nc3cc(O)c(C(C)(C)C)cc3C(C)(C)C)c[nH]c12` [Compound 616, 8-ethoxy-N-(5-hydroxy-2,4-ditert-butyl-phenyl)-4-oxo-1H-quinoline-3-carboxamide]: less than 25%; `CCc1cccc(C(C)CC)c1NC(=O)c1c[nH]c2ccccc2c1=O` (stereo not drawn) [Compound 322, N-(2-ethyl-6-sec-butyl-phenyl)-4-oxo-1H-quinoline-3-carboxamide]: 25 to 100%; `O=C(Nc1nc2ccccc2[nH]1)c1c[nH]c2ccccc2c1=O` [Compound 216, N-(3H-benzoimidazol-2-yl)-4-oxo-1H-quinoline-3-carboxamide]: less than 25%.
In the case of `CS(=O)(=O)Nc1cc(NC(=O)c2c[nH]c3ccccc3c2=O)cc(C(F)(F)F)c1` [Compound 441, N-[3-methylsulfonylamino-5-(trifluoromethyl)phenyl]-4-oxo-1H-quinoline-3-carboxamide], the Emax is 25 to 100%.
As to `O=C(Nc1ccccc1-c1ccc2c(c1)OCO2)c1c[nH]c2ccccc2c1=O` [Compound 135, N-(2-benzo[1,3]dioxol-5-ylphenyl)-4-oxo-1H-quinoline-3-carboxamide], the Emax is more than 100%.
Still for that read-out and setting: next, `O=C(Nc1ccc2cc[nH]c2c1)c1c[nH]c2cccc(O)c2c1=O` [Compound 116, 5-hydroxy-N-(1H-indol-6-yl)-4-oxo-1H-quinoline-3-carboxamide]: 25 to 100%.
